# Assay results from the supplement of paper PMC10307832.
# What was measured:
# Assay in all cases: relative viability (nuclei count vs DMSO), 5 days (fraction); higher = more cells survive
# 201T = tested on: 201T
# How it was run: (§1)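 Nuclei were stained with Hoechst during a one-step fixation (final 0.05% Triton X-100, 1% formaldehyde, 1 ug/ml Hoechst) carried out 5 days after dosing, then counted on 4× images. The cells, lung cancer lines in 1536-well plates, had been dosed by pin tool the day after seeding with one drug alone or a fixed anchor-drug dose plus five library-drug doses (not always all listed) in √10 steps. Relative viability is the nuclei count in treated wells divided by that in vehicle wells, and each value is the median of duplicate plates.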
# BEN = tested on: BEN
# How it was run: as §1
# COR-L 105 = tested on: COR-L 105
# How it was run: as §1
# EKVX = tested on: EKVX
# How it was run: as §1
# EPLC-272H = tested on: EPLC-272H
# How it was run: as §1
# H3255 = tested on: H3255
# How it was run: as §1
# HCC-827 = tested on: HCC-827
# How it was run: as §1
# HOP-62 = tested on: HOP-62
# How it was run: as §1
# LCLC-97TM1 = tested on: LCLC-97TM1
# How it was run: as §1
# LOU-NH91 = tested on: LOU-NH91
# How it was run: as §1
# LU99A = tested on: LU99A
# How it was run: as §1
# NCI-H1395 = tested on: NCI-H1395
# How it was run: as §1
smiles,measurement,setting,value
COc1cc(N2CCC(C(N)=O)CC2)ccc1Nc1nc(N)c(Cl)c(Nc2ccccc2S(=O)(=O)C(C)C)n1 [HG-5-88-01] + Cc1nc(Nc2ncc(C(=O)Nc3c(C)cccc3Cl)s2)cc(N2CCN(CCO)CC2)n1 [Dasatinib] (partner 0.075 µM),relative viability,201T; first compound 0.04 µM,0.616
same,relative viability,201T; first compound 0.1265 µM,0.56
same,relative viability,201T; first compound 0.4 µM,0.545
same,relative viability,201T; first compound 1.265 µM,0.512
same,relative viability,201T; first compound 4 µM,0.267
same,relative viability,BEN; first compound 0.04 µM,0.227
same,relative viability,BEN; first compound 0.1265 µM,0.337
same,relative viability,BEN; first compound 0.4 µM,0.291
same,relative viability,BEN; first compound 1.265 µM,0.319
same,relative viability,BEN; first compound 4 µM,0.26
same,relative viability,COR-L 105; first compound 0.04 µM,0.305
same,relative viability,COR-L 105; first compound 0.1265 µM,0.314
same,relative viability,COR-L 105; first compound 0.4 µM,0.254
same,relative viability,COR-L 105; first compound 1.265 µM,0.203
same,relative viability,COR-L 105; first compound 4 µM,0.19
same,relative viability,EKVX; first compound 0.04 µM,0.479
same,relative viability,EKVX; first compound 0.1265 µM,0.563
same,relative viability,EKVX; first compound 0.4 µM,0.435
same,relative viability,EKVX; first compound 4 µM,0.273
same,relative viability,EPLC-272H; first compound 0.04 µM,0.49
same,relative viability,EPLC-272H; first compound 0.1265 µM,0.31
same,relative viability,EPLC-272H; first compound 0.4 µM,0.226
same,relative viability,EPLC-272H; first compound 1.265 µM,0.121
same,relative viability,EPLC-272H; first compound 4 µM,0.0712
same,relative viability,H3255; first compound 0.04 µM,0.338
same,relative viability,H3255; first compound 0.1265 µM,0.411
same,relative viability,H3255; first compound 0.4 µM,0.355
same,relative viability,H3255; first compound 4 µM,0.2
same,relative viability,HCC-827; first compound 0.04 µM,0.279
same,relative viability,HCC-827; first compound 0.1265 µM,0.271
same,relative viability,HCC-827; first compound 0.4 µM,0.235
same,relative viability,HCC-827; first compound 1.265 µM,0.101
same,relative viability,HCC-827; first compound 4 µM,0.118
same,relative viability,HOP-62; first compound 0.04 µM,0.682
same,relative viability,HOP-62; first compound 0.1265 µM,0.606
same,relative viability,HOP-62; first compound 0.4 µM,0.487
same,relative viability,HOP-62; first compound 1.265 µM,0.444
same,relative viability,HOP-62; first compound 4 µM,0.253
same,relative viability,LCLC-97TM1; first compound 0.04 µM,0.753
same,relative viability,LCLC-97TM1; first compound 0.1265 µM,0.956
same,relative viability,LCLC-97TM1; first compound 0.4 µM,0.481
same,relative viability,LCLC-97TM1; first compound 1.265 µM,0.714
same,relative viability,LCLC-97TM1; first compound 4 µM,0.477
same,relative viability,LOU-NH91; first compound 0.04 µM,0.57
same,relative viability,LOU-NH91; first compound 0.1265 µM,0.524
same,relative viability,LOU-NH91; first compound 0.4 µM,0.493
same,relative viability,LOU-NH91; first compound 1.265 µM,0.321
same,relative viability,LOU-NH91; first compound 4 µM,0.243
same,relative viability,LU99A; first compound 0.04 µM,0.592
same,relative viability,LU99A; first compound 0.1265 µM,0.496
same,relative viability,LU99A; first compound 0.4 µM,0.434
same,relative viability,LU99A; first compound 1.265 µM,0.21
same,relative viability,LU99A; first compound 4 µM,0.237
same,relative viability,NCI-H1395; first compound 0.04 µM,0.416
same,relative viability,NCI-H1395; first compound 0.1265 µM,0.371
same,relative viability,NCI-H1395; first compound 0.4 µM,0.393
